This is an account of results in patent US20260297083A1, “SUBSTITUTED ACETYLENE COMPOUND DERIVATIVES AND THEIR PHARMACEUTICAL USE” (AVELOS THERAPEUTICS INC., priority 2023, published 2026).

This assay addresses T1, Polθ polymerase domain (amino acids 1792-2590) (Homo sapiens, UniProt O75417).
T1 construct: 10×Histidine-SUMO (N, cleaved yes); made in house; host or cells: E. coli
T1 sequence (O75417 1792-2590): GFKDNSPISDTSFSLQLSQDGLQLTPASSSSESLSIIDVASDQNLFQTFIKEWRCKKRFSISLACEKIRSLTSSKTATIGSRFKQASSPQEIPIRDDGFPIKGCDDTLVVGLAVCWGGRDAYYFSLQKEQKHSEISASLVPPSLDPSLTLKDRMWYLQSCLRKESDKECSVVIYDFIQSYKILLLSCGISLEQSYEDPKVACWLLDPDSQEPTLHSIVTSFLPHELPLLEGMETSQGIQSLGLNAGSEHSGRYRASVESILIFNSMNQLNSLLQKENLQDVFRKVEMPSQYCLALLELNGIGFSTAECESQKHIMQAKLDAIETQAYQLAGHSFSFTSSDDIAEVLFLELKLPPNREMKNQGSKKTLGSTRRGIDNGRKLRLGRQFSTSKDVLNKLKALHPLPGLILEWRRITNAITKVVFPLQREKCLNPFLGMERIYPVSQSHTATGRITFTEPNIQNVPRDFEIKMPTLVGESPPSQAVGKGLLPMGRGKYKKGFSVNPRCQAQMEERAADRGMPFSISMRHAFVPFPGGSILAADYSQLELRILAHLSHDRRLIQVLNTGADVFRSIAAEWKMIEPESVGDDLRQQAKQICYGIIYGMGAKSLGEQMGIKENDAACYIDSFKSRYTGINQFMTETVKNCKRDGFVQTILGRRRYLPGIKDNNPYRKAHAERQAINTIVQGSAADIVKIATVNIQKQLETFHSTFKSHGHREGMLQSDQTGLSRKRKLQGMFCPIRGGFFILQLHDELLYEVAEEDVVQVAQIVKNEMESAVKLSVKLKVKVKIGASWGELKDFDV
The experiment in a line: Picogreen assay of Polθ polymerase activity. Format: biochemical. Particulars: 12-point concentration response, 90 minutes incubation at room temperature, 8 nM Polθ in 2×polymerase mixture, read-out: PolQ IC50. An excerpt:
The DNA sequence of the polQ gene (Genebank ID #NM 199420.4) was chemically synthesized. The DNA sequence encoding the polymerase domain (amino acids 1792-2590) was subcloned into an E. coli expression plasmid, resulting in the fusion of 10×Histidine-SUMO tag at the N terminus of the polymerase domain.
The protein was expressed in E. coli. and purified using a 2-step IMAC (immobilized metal chelate affinity chromatography) procedure. Briefly stated, the overexpressed E. coli lysate was subjected to Ni-NTA purification, and an N-terminal tag was digested by a SUMO protease. Then, the excised fragment of 10×Histidine-SUMO tag was removed using Ni-NTA beads. The resulting protein was used for the Picogreen assay, as described below.
The methods of DNA complex preparation were slightly modified from the protocol previously reported (Zatreanu et al., 2021, Nature Communications, 12:3636). Briefly stated, polθ substrate was prepared by mixing Oligo1 (5′-GCG GCT GTC ATA AG-3′) and Oligo2 (5′-GCTACATTGACAATGGCATCAAATCTCAGATTGCGTCTTATGACAGCCGCG-3′) in an annealing buffer (20 mM Tris-Cl, pH 7.5, 50 mM NaCl) to the final concentration of 22 uM and 20 uM, respectively. The Polθ product was prepared by mixing Oligo3 (5′-CGCGGCTGTCATAAGACGCAATCTGAGATTTGATGCCATTGTCAATGTAGC-3′) and Oligo2 (5′-GCTACATTGACAATGGCATCAAATCTCAGATTGCGTCTTATGACAGCCGCG-3′) to the final concentration of 20 uM. The polθ product was used for the top signal control in the Picogreen assay. Both substrate and product were heated to 95° C. […] and cooled slowly to room temperature.
To evaluate the ability of test compounds to inhibit the activity of polθ in vitro, a Picogreen assay was performed to measure polθ IC50 (nM).
The reactions were performed at room temperature in an assay buffer (25 mM Tris-HCl, pH 7.5, 12.5 mM NaCl, 0.5 mM MgCl2, 5% (v/v) glycerol, 0.01% (v/v) Triton X-100, 0.01% (w/v) Bovine serum albumin, 1 mM DTT). Thirty microliters of 2×polymerase mixture (8 nM Polθ enzyme in an assay buffer) were distributed to 96 well plates, test compounds were prepared by dilution in 100% DMSO to obtain the correct dose range for a 12-point concentration response and 1 μl was dispensed into each well, and then 30 microliters of 2×substrate mix (100 nM DNA and 40 uM dNTPs in an assay buffer) was added. After 90 minutes of incubation, the reaction was stopped and DNA was stained by adding 40 microliters of Picogreen solution (1:80 dilution of Picogreen, Invitrogen, Cat #P7581, 25 mM Tris-HCl, pH 7.5, 10 mM EDTA, pH 7.5).
The fluorescence intensity was measured at excitation/emission=485 nm/520 nm using an Ensight plate reader (Perkin Elmer). The data was analyzed by GraphPad Prism software (Version 8.4.3) to calculate IC50.
As a reminder, the IC50 is the midpoint of a concentration-inhibition curve. `Cc1cc(C(F)(F)F)cc(N2[C@H](C(=O)N(CC#Cc3cnc(N4CCOCC4)cn3)c3ccc(F)c(C)c3)CCS2(=O)=O)n1` [compound 39]: the IC50 was 1 to 50 nM.

As for `Cc1ccc(F)c(N(CC#Cc2cnc(N3CCOCC3)cn2)C(=O)[C@@H]2CCS(=O)(=O)N2c2cc(C(F)(F)F)cc(C)n2)c1` [compound 40], the IC50 was in the range of 1 to 50 nM.

On to `Cc1ccc(F)c(N(CC#Cc2cnc(N3CCOCC3)cn2)C(=O)[C@H]2CCS(=O)(=O)N2c2cc(C(F)(F)F)cc(C)n2)c1` [compound 41], for which the IC50 is > 101 nM.

For the compound `Cc1cc(C(F)(F)F)cc(N2[C@H](C(=O)N(CC#Cc3cncc(N4CCOCC4)n3)c3ccc(F)c(C)c3)CCS2(=O)=O)n1` [compound 42], the IC50 fell in the range of 1 to 50 nM.

With `Cc1cc(C(F)(F)F)cc(N2[C@H](C(=O)N(CC#Cc3ncc(N4CCOCC4)nc3N)c3ccc(F)c(C)c3)CCS2(=O)=O)n1` [compound 43], the IC50 was in the range of 1 to 50 nM.

Turning to `Cc1cc(C(F)(F)F)cc(N2[C@H](C(=O)N(CC#Cc3cnc(N4CCOCC4)c(N)n3)c3ccc(F)c(C)c3)CCS2(=O)=O)n1` [compound 44], the IC50 was 1 to 50 nM.

`Cc1cc(C(F)(F)F)cc(N2[C@H](C(=O)N(CC#Cc3cnc(N4CCOCC4)c(C)n3)c3ccc(F)c(C)c3)CCS2(=O)=O)n1` [compound 45]: the IC50 is 1 to 50 nM.

With `Cc1cc(C(F)(F)F)cc(N2[C@H](C(=O)N(CC#Cc3cnc(N4CCOCC4)c(C(F)(F)F)n3)c3ccc(F)c(C)c3)CCS2(=O)=O)n1` [compound 46], the IC50 is 1 to 50 nM.

On to `Cc1cc(C(F)(F)F)cc(N2[C@H](C(=O)N(CC#Cc3cnc(N4C[C@@H](C)O[C@@H](C)C4)cn3)c3ccc(F)c(C)c3)CCS2(=O)=O)n1` [compound 47], for which the IC50 was 1 to 50 nM.

In the case of `Cc1cc(C(F)(F)F)cc(N2[C@H](C(=O)N(CC#Cc3cnc(N4CC5CCC(C4)O5)cn3)c3ccc(F)c(C)c3)CCS2(=O)=O)n1` [compound 48], the IC50 lay in the range of 1 to 50 nM.

In the case of `Cc1cc(C(F)(F)F)cc(N2[C@H](C(=O)N(CC#Cc3cnc(N4C5CCC4COC5)cn3)c3ccc(F)c(C)c3)CCS2(=O)=O)n1` [compound 49], the IC50 lay within 1 to 50 nM.

Take `CCN1CCN(c2cnc(C#CCN(C(=O)[C@@H]3CCS(=O)(=O)N3c3cc(C(F)(F)F)cc(C)n3)c3ccc(F)c(C)c3)cn2)CC1` [compound 50]: the IC50 was 1 to 50 nM.

On to `CCN1CCN(c2cnc(C#CCN(C(=O)[C@@H]3CCS(=O)(=O)N3c3cc(C(F)(F)F)cc(C)n3)c3cc(C)ccc3F)cn2)CC1` [compound 51], for which the half-maximal inhibitory concentration (IC50) lay in the range of 1 to 50 nM.

For the compound `Cc1cc(C(F)(F)F)cc(N2[C@H](C(=O)N(CC#Cc3cnc(N4C[C@H](C)N[C@@H](C)C4)cn3)c3ccc(F)c(C)c3)CCS2(=O)=O)n1` [compound 52], the IC50 is 1 to 50 nM.

As to `Cc1cc(C(F)(F)F)cc(N2[C@H](C(=O)N(CC#Cc3cnc(N4C[C@H](C)N(C(C)C)[C@@H](C)C4)cn3)c3ccc(F)c(C)c3)CCS2(=O)=O)n1` [compound 53], the IC50 lay in the range of 1 to 50 nM.

Regarding `Cc1cc(C(F)(F)F)cc(N2[C@H](C(=O)N(CC#Cc3cnc(N4[C@H](C)CN(C(C)C)C[C@H]4C)cn3)c3ccc(F)c(C)c3)CCS2(=O)=O)n1` [compound 55], the IC50 was 1 to 50 nM.

With `Cc1cc(C(F)(F)F)cc(N2[C@H](C(=O)N(CC#Cc3cnc(-c4c[nH]nn4)cn3)c3ccc(F)c(C)c3)CCS2(=O)=O)n1` [compound 56], the IC50 was in the range of 1 to 50 nM.

Take `Cc1cc(C(F)(F)F)cc(N2[C@H](C(=O)N(CC#Cc3cnc(-n4ccnn4)cn3)c3ccc(F)c(C)c3)CCS2(=O)=O)n1` [compound 57]: the IC50 lay within 1 to 50 nM.

On to `Cc1cc(C(F)(F)F)cc(N2[C@H](C(=O)N(CC#Cc3cnc(-c4ncon4)cn3)c3ccc(F)c(C)c3)CCS2(=O)=O)n1` [compound 58], for which the IC50 is > 101 nM.

In the case of `Cc1cc(C(F)(F)F)cc(N2[C@H](C(=O)N(CC#Cc3cnc(C#N)cn3)c3ccc(F)c(C)c3)CCS2(=O)=O)n1` [compound 59], the IC50 is > 101 nM.

`Cc1cc(C(F)(F)F)cc(N2[C@H](C(=O)N(CC#Cc3cnc(C(=O)O)cn3)c3ccc(F)c(C)c3)CCS2(=O)=O)n1` [compound 60]: the IC50 was 1 to 50 nM.

With `Cc1cc(C(F)(F)F)cc(N2[C@H](C(=O)N(CC#Cc3cnc(C(N)=O)cn3)c3ccc(F)c(C)c3)CCS2(=O)=O)n1` [compound 61], the IC50 was > 101 nM.

On to `Cc1cc(C(F)(F)F)cc(N2[C@H](C(=O)N(CC#Cc3cnc(C(N)=O)c(C)n3)c3ccc(F)c(C)c3)CCS2(=O)=O)n1` [compound 62], for which the IC50 was in the range of 1 to 50 nM.

With `Cc1cc(C(F)(F)F)cc(N2[C@H](C(=O)N(CC#Cc3cncc(C(N)=O)n3)c3ccc(F)c(C)c3)CCS2(=O)=O)n1` [compound 63], the IC50 fell in the range of 1 to 50 nM.

Turning to `Cc1cc(C(F)(F)F)cc(N2[C@H](C(=O)N(CC#Cc3nccnc3C(N)=O)c3ccc(F)c(C)c3)CCS2(=O)=O)n1` [compound 64], the IC50 is 1 to 50 nM.

Turning to `Cc1cc(C(F)(F)F)cc(N2[C@H](C(=O)N(CC#Cc3cnc(S(N)(=O)=O)cn3)c3ccc(F)c(C)c3)CCS2(=O)=O)n1` [compound 65], the IC50 is > 101 nM.

On to `Cc1cc(C(F)(F)F)cc(N2[C@H](C(=O)N(CC#Cc3cncc(S(N)(=O)=O)n3)c3ccc(F)c(C)c3)CCS2(=O)=O)n1` [compound 66], for which the IC50 fell in the range of 51 to 100 nM.

`CNC(=O)c1cnc(C#CCN(C(=O)[C@@H]2CCS(=O)(=O)N2c2cc(C(F)(F)F)cc(C)n2)c2ccc(F)c(C)c2)cn1` [compound 67]: the IC50 lay within 1 to 50 nM.

Turning to `Cc1cc(C(F)(F)F)cc(N2[C@H](C(=O)N(CC#Cc3cnc(C(=O)N(C)C)cn3)c3ccc(F)c(C)c3)CCS2(=O)=O)n1` [compound 68], the IC50 was 1 to 50 nM.

Regarding `Cc1cc(C(F)(F)F)cc(N2[C@H](C(=O)N(CC#Cc3cnc(C(=O)N4CCOCC4)cn3)c3ccc(F)c(C)c3)CCS2(=O)=O)n1` [compound 69], the IC50 fell in the range of 1 to 50 nM.

As to `Cc1cc(C(F)(F)F)cc(N2[C@H](C(=O)N(CC#Cc3cncc(C(=O)N4CCOCC4)n3)c3ccc(F)c(C)c3)CCS2(=O)=O)n1` [compound 70], the IC50 was in the range of 1 to 50 nM.

Regarding `Cc1cc(C(F)(F)F)cc(N2[C@H](C(=O)N(CC#Cc3cncc(C(=O)N4CC5CCC(C4)O5)n3)c3ccc(F)c(C)c3)CCS2(=O)=O)n1` [compound 71], the IC50 was 1 to 50 nM.

In the case of `Cc1cc(C(F)(F)F)cc(N2[C@H](C(=O)N(CC#Cc3cncc(C(=O)N4CCNCC4)n3)c3ccc(F)c(C)c3)CCS2(=O)=O)n1` [compound 72], the IC50 lay within 1 to 50 nM.

With `Cc1cc(C(F)(F)F)cc(N2[C@H](C(=O)N(CC#Cc3cncc(C(=O)N4CC5CCC(C4)N5)n3)c3ccc(F)c(C)c3)CCS2(=O)=O)n1` [compound 73], the IC50 was 1 to 50 nM.

For `Cc1cc(C(F)(F)F)cc(N2[C@H](C(=O)N(CC#Cc3cncc(C(=O)N4C[C@H](C)N[C@@H](C)C4)n3)c3ccc(F)c(C)c3)CCS2(=O)=O)n1` [compound 74], the IC50 is > 101 nM.
